# Results from patent US8287888B2, “Thermosensitive polyphosphazene-bioactive molecule conjugates, preparation method thereof and use thereof” (Korea Institute of Science and Technology, priority 2006, dated 2012).
# Assays:
# [1] = Sol-gel phase transition with change of temperature (Brookfield rheometer); format: physicochemical; conditions: 10 wt % in phosphate buffered saline (pH 7.4)
# Protocol: The poly(organophosphazene) conjugated with a drug or bioactivemolecules obtained in Examples 1 to 11 were respectively dissolved in phosphate buffered saline (pH 7.4) at 4° C. so as to make solutions with concentrations of 10 wt %. The solutions were put into a chamber of a Brookfield DV-III+ Rheometer equipped with a thermostatic bath (TC-501).
# [2] = tested on: Stomach cancer cells, SNU-601; experiment: Anti-cancer activity in vivo of hydrogel conjugated with doxorubicin; parameters: species or system nude mouse (Balb/C)
# Protocol: The anti-cancer activity in vivo of the poly(organophosphazene) hydrogel conjugated with doxorubicin prepared by the method of Example 5 was determined by the following method.
# A nude mouse (OrientalBio, Balb/C, female of 5-weeks old, 20 g) was used as an animal model for animal experimentation for an in vivo test. Stomach cancer cells, SNU-601 (1×10^7 cells, 0.2 ml, the Korean Cell Line Bank), were injected into the dorsum of the mouse. A polymer solution containing the 10 wt % poly(organophosphazene)-doxorubicin conjugate of Example 5 in phosphate buffered saline (pH 7.4) was prepared. 0.1 ml and 0.2 ml of the solution was respectively injected into the cancer cells, and the change in the size of the cancer cells was measured.
# When the solution is injected in an amount as much as 0.1 ml, the amount of doxorubicin injected is 30 mg per 1 kg of the mouse weight. When the solution is injected in an amount as much as 0.2 ml, the amount of doxorubicin injected is 60 mg per 1 kg of the mouse weight.
# As the control group, the magnitude transition of the cancer cell into which doxorubicin was injected in the amount of 30 mg per 1 kg of the mouse weight and that to which saline is administered instead of the anti-cancer drug were measured respectively. The number of mouse used was 10 heads respectively.
# [3] = tested on: human breast adenocarcinoma (MCF-7); experiment: Anti-cancer activity in vitro, MTT; format: cell-based; conditions: for IC50: Homo sapiens
# Protocol: (§1) In order to find out anticancer activity in vitro of the poly(organophosphazene) conjugated with anti-cancer drug of the present invention, the trial as follows was performed about the human breast adenocarcinoma (MCF-7, the Korea Cell Line Bank) and the human cervix adenocarcinoma (Hela, the Korea Cell Line Bank).
# (§2) For the in vitro cell experiment, in order to measure the genesistasis concentration to 50% (IC50) toward the cancer cell of the poly(organophosphazene) conjugated with anticancer drug, the analytical method using 3-(4,5-dimethylthiazol-2-yl)-2,5-diphenyl-2H-tetrazolium bromide (MTT) was performed [T. Mosmann, J. Immunol. Method, 65, (1985) 55].
# (§3) The materials for to measuring were respectively melted in the DMSO (dimethylsulfoxide) of the small amount, and they were diluted to the distilled water with 200 times. The materials solution were added to the cancer cell that is MCF-7(the Korea Cell Line Bank) and Hela (the Korea Cell Line Bank). Then, they were added to 96-well microtiter plater to 1.0×10^4 cell/ml (the concentration of the cancer cell). And they were cultivated for 2, 3, 4 days, respectively, with 37° C. in 5% CO2 condition.
# (§4) MTT solution (20 μl) was mixed the cultivated cell with, and they were more cultivated for 4 hours with 37° C. in 5% CO2 condition. After the upper culture medium of each cell was removed, DMSO (100 μl) was added to a well and they were shaken in the room temperature to the plate shaker with for 20 minutes, thereby dissolving the formazan crystal generated by reducing of MTT.
# [4] = tested on: human cervix adenocarcinoma (Hela); experiment: Anti-cancer activity in vitro, MTT; format: cell-based; conditions: for IC50: Homo sapiens, HeLa
# Protocol: as §1, §2, §3, §4
# stomach cancer, SNU-601 = experiment: Anti-cancer activity in vivo of hydrogel conjugated with paclitaxel; parameters: species or system nude mouse (Balb/C)
# Protocol: The anti-cancer activity in vivo of the poly(organophosphazene) hydrogel conjugated with paclitaxel prepared by the method of Example 1 was determined by the following method.
# A nude mouse (OrientalBio, Balb/C, female of 5-weeks old, 20 g) was used as an animal model for animal experimentation for an in vivo test. Cells of stomach cancer, SNU-601 (1×10^7 cells, 0.2 ml, the Korean Cell Line Bank), were injected into the dorsum of the mouse. A polymer solution containing the 10 wt % poly(organophosphazene)-paclitaxel conjugate of Example 1 in phosphate buffered saline (pH 7.4) was prepared. 0.1 ml and 0.2 ml of the solution were respectively injected into the cancer cells, and the change in the size of the cells was measured.
# When the solution is injected in an amount as much as 0.1 ml, the amount of paclitaxel injected is 10 mg per 1 kg of the mouse weight. When the solution is injected in an amount as much as 0.2 ml, the amount of paclitaxel injected is […] per 1 kg of the mouse weight.
# As the control group, the magnitude transition of the cancer cell into which paclitaxel was injected in the amount of 60 mg per 1 kg of the mouse weight and that of the cancer cell into which saline was administered instead of the anti-cancer drug were measured respectively. The number of mouse used was 10 heads respectively.
molecule,measurement,setting,value
poly[(isoleucineethylester)(aminomethoxypolyethyleneglycol 550)(glycylglycine)(glycylglycylglycylethylester)(glycylglycylglycin-arginine-glycin-asparagine-cerinicacidpeptied)phosphazene] [Example 10],Gel solidity (maximum viscosity of the polymer solution),[1],238 Pa · s
same,Max. gelling temp. (temperature where the viscosity of the polymer solution reaches the maximum point),[1],42 °C
poly[(isoleucineethylester)(aminomethoxypolyethyleneglycol 550)(glycylglycine)(glycylglycylglycin-arginine-glycin-asparagine-cerinicacidpeptied)phosphazene] [Example 7],Gel solidity (maximum viscosity of the polymer solution),[1],145 Pa · s
same,Max. gelling temp. (temperature where the viscosity of the polymer solution reaches the maximum point),[1],42 °C
poly[(isoleucineethylester)(aminomethoxypolyethyleneglycol 550)(glycylglycine)(glycylglycyldoxorubicin)phosphazene] [Example 5],Gel solidity (maximum viscosity of the polymer solution),[1],1477 Pa · s
same,Max. gelling temp. (temperature where the viscosity of the polymer solution reaches the maximum point),[1],39 °C
same,size of the cancer cells decreased to,"[2]; 0.1 ml intratumoral (doxorubicin 30 mg/kg), after 14 days",68%
same,size of the cancer cells decreased to,"[2]; 0.1 ml intratumoral (doxorubicin 30 mg/kg), after 26 days",173%
same,size of the cancer cells decreased to,"[2]; 0.1 ml intratumoral (doxorubicin 30 mg/kg), after 28 days",168%
same,size of the cancer cells decreased to,"[2]; 0.2 ml intratumoral (doxorubicin 60 mg/kg), after 14 days",155%
same,size of the cancer cells decreased to,"[2]; 0.2 ml intratumoral (doxorubicin 60 mg/kg), after 22 days",195%
same,size of the cancer cells decreased to,"[2]; 0.2 ml intratumoral (doxorubicin 60 mg/kg), after 28 days",182%
same,mortality,"[2]; doxorubicin concentration of 30 mg/kg as hydrogel, 10 mice per group",did not die
same,mortality,"[2]; doxorubicin concentration of 60 mg/kg as hydrogel, 10 mice per group",did not die
"COc1cccc2c1C(=O)c1c(O)c3c(c(O)c1C2=O)C[C@@](O)(C(=O)CO)C[C@@H]3O[C@H]1C[C@H](N)[C@H](O)[C@H](C)O1 [doxorubicin, reference compound]",mortality due to toxicity,"[2]; free doxorubicin 30 mg/kg, after 14 days, 10 mice per group",all of mouse died
same,IC50,"[3]; MCF7, MCF-7, 2nd day",2.29 µg/mL
same,IC50,"[3]; MCF7, MCF-7, 3rd day",1.69 µg/mL
same,IC50,"[3]; MCF7, MCF-7, 4th day",1 µg/mL
same,IC50,[4]; 2nd day,0.321 µg/mL
same,IC50,[4]; 3rd day,0.692 µg/mL
same,IC50,[4]; 4th day,0.19 µg/mL
poly[(isoleucineethylester)(aminomethoxypolyethyleneglycol 750)(glycylglycine)(glycylglycyldoxorubicin)phosphazene] [Example 6],Gel solidity (maximum viscosity of the polymer solution),[1],313 Pa · s
same,Max. gelling temp. (temperature where the viscosity of the polymer solution reaches the maximum point),[1],46 °C
"CC(=O)O[C@H]1C(=O)[C@@]2(C)[C@H]([C@H](OC(=O)c3ccccc3)[C@]3(O)C[C@H](OC(=O)[C@H](O)[C@@H](NC(=O)c4ccccc4)c4ccccc4)C(C)=C1C3(C)C)[C@]1(OC(C)=O)CO[C@@H]1C[C@@H]2O [paclitaxel, reference compound]",IC50,"[3]; MCF7, MCF-7, 2nd day",0.022 µg/mL
same,IC50,"[3]; MCF7, MCF-7, 3rd day",0.006 µg/mL
same,IC50,"[3]; MCF7, MCF-7, 4th day",0.002 µg/mL
same,IC50,[4]; 2nd day,0.083 µg/mL
same,IC50,[4]; 3rd day,0.021 µg/mL
same,IC50,[4]; 4th day,0.014 µg/mL
same,mice died due to toxicity,"stomach cancer, SNU-601; 60 mg/kg, after 10 days, 10 mice per group",8 mouse heads
poly[(isoleucineethylester)(aminomethoxypolyethyleneglycol 550)(glycylglycine)(glycylglycylpaclitaxel)phosphazene] [Example 2],Gel solidity (maximum viscosity of the polymer solution),[1],230 Pa · s
same,Max. gelling temp. (temperature where the viscosity of the polymer solution reaches the maximum point),[1],38 °C
same,Anti-cancer activity [IC50],"[3]; MCF-7, 2nd day",0.027 µg/mL
same,Anti-cancer activity [IC50],"[3]; MCF-7, 3rd day",0.021 µg/mL
same,Anti-cancer activity [IC50],"[3]; MCF-7, 4th day",0.007 µg/mL
same,Anti-cancer activity [IC50],[4]; 2nd day,0.082 µg/mL
same,Anti-cancer activity [IC50],[4]; 3rd day,0.079 µg/mL
same,Anti-cancer activity [IC50],[4]; 4th day,0.048 µg/mL
poly[(isoleucineethylester)(aminomethoxypolyethyleneglycol 550)(glycylglycine)(glycylglycyldoxorubicin)phosphazene] [Example 4],Gel solidity (maximum viscosity of the polymer solution),[1],88 Pa · s
same,Max. gelling temp. (temperature where the viscosity of the polymer solution reaches the maximum point),[1],37 °C
same,Anti-cancer activity [IC50],"[3]; MCF-7, 2nd day",2.829 µg/mL
same,Anti-cancer activity [IC50],"[3]; MCF-7, 3rd day",2.801 µg/mL
same,Anti-cancer activity [IC50],"[3]; MCF-7, 4th day",1.641 µg/mL
same,Anti-cancer activity [IC50],[4]; 2nd day,1.425 µg/mL
same,Anti-cancer activity [IC50],[4]; 3rd day,0.892 µg/mL
same,Anti-cancer activity [IC50],[4]; 4th day,0.283 µg/mL
poly[(isoleucineethylester)(aminomethoxypolyethyleneglycol 550)(glycylglycine)(glycylglycylglycin-arginine-glycin-asparagine-cerinicacidpeptied)phosphazene] [Example 8],Gel solidity (maximum viscosity of the polymer solution),[1],318 Pa · s
same,Max. gelling temp. (temperature where the viscosity of the polymer solution reaches the maximum point),[1],39 °C
poly[(isoleucineethylester)(aminomethoxypolyethyleneglycol 550)(glycylglycine)(glycylglycin)(glycylglycylglycin-arginine-glycin-asparagine-cerinicacidpeptied)phosphazene] [Example 11],Gel solidity (maximum viscosity of the polymer solution),[1],155 Pa · s
same,Max. gelling temp. (temperature where the viscosity of the polymer solution reaches the maximum point),[1],44 °C
poly[(isoleucineethylester)(aminomethoxypolyethyleneglycol 550)(glycylglycine)(glycylglycylpaclitaxel)phosphazene] [Example 1],Gel solidity (maximum viscosity of the polymer solution),[1],128 Pa · s
same,Max. gelling temp. (temperature where the viscosity of the polymer solution reaches the maximum point),[1],40 °C
same,Anti-cancer activity [IC50],"[3]; MCF-7, 2nd day",0.025 µg/mL
same,Anti-cancer activity [IC50],"[3]; MCF-7, 3rd day",0.018 µg/mL
same,Anti-cancer activity [IC50],"[3]; MCF-7, 4th day",0.003 µg/mL
same,Anti-cancer activity [IC50],[4]; 2nd day,0.099 µg/mL
same,Anti-cancer activity [IC50],[4]; 3rd day,0.057 µg/mL
same,Anti-cancer activity [IC50],[4]; 4th day,0.022 µg/mL
same,size of the cancer cells decreased to,"stomach cancer, SNU-601; 0.1 ml intratumoral (paclitaxel 10 mg/kg), after 26 days",60%
same,size of the cancer cells decreased to,"stomach cancer, SNU-601; 0.1 ml intratumoral (paclitaxel 10 mg/kg), after 34 days",57%
same,size of the cancer cells decreased to,"stomach cancer, SNU-601; 0.2 ml intratumoral (paclitaxel 30 mg/kg), after 26 days",81%
same,size of the cancer cells decreased to,"stomach cancer, SNU-601; 0.2 ml intratumoral (paclitaxel 30 mg/kg), after 34 days",81%
